Reference: US10859565B2, “High throughput 3D assay for immune cell and drug homing, migration and tumor cytotoxicity” (Corning Incorporated, priority 2017, dated 2020)

Tests used:
Format in all cases: cell-based
[1] = system: NK-92MI cells; test: NK-92MI (NK) cell migration through HTS Transwell towards A549/GFP 3D tumor spheroids, flow cytometry; conditions: 24 hours
Protocol: (§1) A549/GFP Cells (Cell Biolabs, Inc. Cat. No. AKR-209), were seeded into 96 well spheroid microplates (Corning Cat. No. 4515) at 2,000 cells per well in Iscove's Modification of DMEM (IMDM) (Corning Cat. No. 10-016-CM) supplemented with 10% fetal bovine serum (FBS) (Corning Cat. No. 35-010-CV). The next day, medium was replaced with […] IMDM 10% FBS containing 30 ng/mL of Human SDF-1 alpha (SDF-1α)/CXCL12 (Shenandoah Biotechnology Inc™ Cat. No. 100-20) or vehicle control. NK92-MI cells were stained for one hour with 80 μM CellTracker™ Blue CMHC Dye (Molecular Probes™ Cat. No. C2110) while simultaneously being treated with 2 μg/mL prostaglandin E2 (PGE2) (Tocris Cat. No. 2296) or vehicle control in IMDM without serum for an hour. NK-92MI cells were then re-suspended in serum free IMDM and seeded into the apical chamber of the inserts at 50,000 cells/insert. After 24 hours, inserts were removed and spheroid microplates were processed for flow cytometry. […] Cells were then analyzed via flow cytometry utilizing the Miltenyi Biotec MacsQuant®.
(§2) NK-92MI migration and tumoricidal activity of A549/GFP cells was assessed utilizing the commercially available Corning HTS 96 Transwell inserts with the Corning 96 well spheroid microplate, as shown in FIG. 4 and FIG. 5. […]

[2] = system: A549/GFP tumor cells; test: NK induced cytotoxicity of A549/GFP tumor cells cultured in 3D; conditions: NK cells exposed to SDF-1α without PGE2; 24 hours
Protocol: as §1, §2

[3] = system: LN229 spheroids; test: Cytotoxicity of LN229 spheroids after direct culture with compounds; conditions: 48 hours of direct culture; N=12 wells per concentration

## CCCCC[C@H](O)/C=C/[C@H]1[C@H](O)CC(=O)[C@@H]1C/C=C\CCCC(=O)O [PGE2, prostaglandin E2]
[1]; NK cells exposed to 2 μg/mL PGE2 for an hour
  NK migration: significantly decreased

## SDF-1α
[1]; 30 ng/mL SDF-1α present with the tumor spheroid in the spheroid microplate
  NK migration: significantly increased
[2]
  viability of A549/GFP tumor cells (tumoricidal activity of NK cells): lowest viability

## COc1cc(/C=C/C(=O)N2CCC=CC2=O)cc(OC)c1OC [Piperlongumine]
[3]
  cytotoxicity of LN229 spheroids: dose dependent cytotoxicity
